Source: patent publication US20250002458A1, “SALT FORMS OF […]” (UNICYCIVE THERAPEUTICS INC., priority 2023, published 2025)
Structures can show the parent of a compound that is named as a salt.

What was measured:
[1] = Stability of select salts of Compound 1 at 5, 25 and 40° C. over 6 months, purity by HPLC; assay type: physicochemical
Protocol: A description of the salt and the purity as determined by HPLC are provided initially and at the 1st, 2nd, 3rd, and 6th month for each salt.
Preparation of test solution: About 50.0 mg of test sample was weighed into a 25 mL of volumetric flask and diluent (10 mL) was added. The mixture was sonicated to dissolve sample and diluted up to mark with diluent and mixed well.

[2] = Photostability of iodide and nitrate salts (control, UV, visible); assay type: physicochemical; settings: for Total impurities: photostability
Protocol: The photostability of Compound 1 iodide salt and Compound 1 nitrate salt were tested.
The photostability of Compound 2 iodide salt and Compound 2 nitrate salt were tested.

Row | SMILES | Purity ([1]; 5° C., 1st Month) | Purity ([1]; 5° C., 2nd Month) | Purity ([1]; 5° C., 3rd Month) | Purity ([1]; 5° C., 6th Month) | Purity ([1]; 5° C., Initial) | Purity ([1]; 25° C., 1st Month) | Purity ([1]; 25° C., 2nd Month) | Purity ([1]; 25° C., 3rd Month) | Purity ([1]; 25° C., 6th Month) | Purity ([1]; 25° C., Initial) | Purity ([1]; 40° C., 1st Month) | Purity ([1]; 40° C., 2nd Month) | Purity ([1]; 40° C., 3rd Month) | Purity ([1]; 40° C., 6th Month) | Purity ([1]; 40° C., Initial) | Total impurities ([2]; UV) | Total impurities ([2]; Visible) | Total impurities ([2]; control sample) | Total impurities compared with the iodide salt ([2]; exposed to both UV and visible light)
1 | C[C@H](NC(=O)OC[n+]1cccc(C(=O)NCCO[N+](=O)[O-])c1)C1CCCCC1 [Compound 1 Sulphate Salt] | 90.7 | 87.9 | 91.1 | 90.9 | 94.7 | 90.0 | 56.9 | 33.7 | 23.5 | 94.7 | 75.6 | 8.3 | 0.9 | 1.5 | 94.7 | – | – | – | –
2 | C[C@H](NC(=O)OC[n+]1cccc(C(=O)NCCO[N+](=O)[O-])c1)C1CCCCC1 [Compound 1 Triflate Salt] | 95.0 | 95.0 | 94.8 | 96.1 | 96.6 | 94.4 | 91.1 | 85.8 | 78.5 | 96.6 | – | – | – | – | – | – | – | – | –
3 | C[C@H](NC(=O)OC[n+]1cccc(C(=O)NCCO[N+](=O)[O-])c1)C1CCCCC1 [Compound 1 4-Nitrobesylate Salt] | 98.1 | 98.1 | 97.8 | 97.9 | 98.1 | 97.2 | 93.1 | 86.8 | 80.3 | 98.1 | – | – | – | – | – | – | – | – | –
4 | C[C@H](NC(=O)OC[n+]1cccc(C(=O)NCCO[N+](=O)[O-])c1)C1CCCCC1 [Compound 1 iodide salt] | – | – | – | – | – | – | – | – | – | – | – | – | – | – | – | 0.27 | 0.60 | 0.07 | –
5 | C[C@H](NC(=O)OC[n+]1cccc(C(=O)NCCO[N+](=O)[O-])c1)C1CCCCC1 [Compound 1 Esylate Salt] | 92.7 | 92.3 | 91.5 | 89.6 | 95.4 | 91.4 | 84.4 | 73.9 | 58.7 | 95.4 | – | – | – | – | – | – | – | – | –
6 | C[C@H](NC(=O)OC[n+]1cccc(C(=O)NCCO[N+](=O)[O-])c1)C1CCCCC1 [Compound 1 Besylate Salt] | 88.8 | 88.6 | 87.5 | 86.9 | 96.6 | 87.1 | 79.3 | 66.7 | 51.2 | 96.6 | – | – | – | – | – | – | – | – | –
7 | C[C@H](NC(=O)OC[n+]1cccc(C(=O)NCCO[N+](=O)[O-])c1)C1CCCCC1 [Compound 1 4-Bromobesylate Salt] | 91.0 | 93.1 | 89.6 | 86.6 | 98.4 | 89.0 | 84.2 | 76.8 | 67.6 | 98.4 | – | – | – | – | – | – | – | – | –
8 | C[C@H](NC(=O)OC[n+]1cccc(C(=O)NCCO[N+](=O)[O-])c1)C1CCCCC1 [Compound 1 nitrate salt] | – | – | – | – | – | – | – | – | – | – | – | – | – | – | – | 0.21 | 0.16 | 0.06 | less than the impurities in Compound 1 iodide salt
9 | C[C@H](NC(=O)OC[n+]1cccc(C(=O)NCCO[N+](=O)[O-])c1)C1CCCCC1 [Compound 1 Phosphate Salt] | 95.8 | 93.8 | 94.6 | 94.5 | 96.5 | 93.3 | 83.7 | 78.2 | 69.4 | 96.5 | 91.4 | 63.1 | 50.9 | 50.5 | 96.5 | – | – | – | –
10 | C[C@H](NC(=O)OC[n+]1cccc(C(=O)NCCO[N+](=O)[O-])c1)C1CCCCC1 [Compound 1 Trifluoroacetate Salt] | 97.2 | 96.6 | 97.0 | 97.2 | 98.6 | 96.5 | 94.6 | 92.2 | 85.9 | 98.6 | – | – | – | – | – | – | – | – | –
11 | C[C@H](NC(=O)OC[n+]1cccc(C(=O)NCCO[N+](=O)[O-])c1)C1CCCCC1 [Compound 1 Perchlorate Salt] | 96.3 | 93.0 | 95.7 | 94.8 | 97.6 | 95.4 | 89.4 | 84.9 | 74.8 | 97.6 | – | – | – | – | – | – | – | – | –
